Here are results for 21 compounds from US20230227427A1, “IL-17A MODULATORS” (SANOFI, priority 2010, published 2023).

Each structure is given as a SMILES string. Read-outs that look alike come from different tables or passages of the source.

The target in the experiment is T1, human recombinant IL-17A (Homo sapiens, UniProt Q16552).
T1 construct: purchased R&D Systems 7955-IL/CF
T1 sequence (Q16552 24-155): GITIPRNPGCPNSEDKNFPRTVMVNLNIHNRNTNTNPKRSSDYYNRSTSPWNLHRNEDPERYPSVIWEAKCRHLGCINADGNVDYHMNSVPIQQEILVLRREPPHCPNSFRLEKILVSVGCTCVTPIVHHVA
Kind of experiment: IL-17A AlphaLISA assay (block binding of IL-17A to its receptor IL-17RA). The conditions noted are these: read-out: AlphaLISA pIC50 (converted). The procedure:
The ability of the compounds to block binding of IL-17A to its receptor, IL-17RA, was analysed in a competition assay using AlphaLISA technology (Perkin Elmer). The assay is a bead based AlphaLISA where the IL-17RA is captured on the acceptor bead via an Fc tag and IL-17A is captured on the streptavidin donor bead via a biotinylated anti-IL17A antibody.
Assay buffer was prepared by adding 0.05% Tween-20 (v/v) and 0.1% BSA to Phosphate Buffered Saline (PBS). The assay was carried out in 384-well white low volume plates (Corning 4512). 10 µL of a 7.5 nM stock of human recombinant IL-17A (R&D Systems 7955-IL/CF) diluted in assay buffer was dispensed into the assay plate and compounds or DMSO vehicle control were added in a volume of 75 nL using a D300 dispenser (Hewlett Packard). The compounds were pre-incubated with the IL-17A for 24 h at room temperature (or for 30 min, where indicated by * in Table A below) prior to addition of 5 μL of a 5 nM stock of human recombinant IL-17RA/Fc chimera (R&D Systems 177-IR-100) diluted in assay buffer. The IL-17A was incubated with the receptor for a further 90 minutes at room temperature before addition of 5 μL of a mixture of anti-human Fc IgG acceptor beads (75 μg/mL, Perkin Elmer AL103C) and anti-IL-17A biotin conjugated antibody (5 nM, Enzo Life Sciences, ENZ-ABS278-0100) in assay buffer. After a further 30 min incubation at room temperature, 5 μL of streptavidin donor beads ([…], Perkin Elmer 6760002S) were added and the plate was incubated for 3 h in the dark.
The luminescence signal was measured using an Enspire plate reader (Perkin Elmer) with excitation at 680 nm and emission at 615 nm. Data were analysed using GraphPad Prism and fitted to a 4-parameter logistic equation. The IC50 values were calculated using the DMSO vehicle as the negative control and a high concentration (6 μM) of a reference IL-17A inhibitor as the positive control.
Activity of the Example compounds is reported as a PIC50 value in Table A.
Background: Bead proximity is the source of the signal in Alpha formats.

[1] abbreviates: compounds pre-incubated with the IL-17A for 30 min (indicated by * in Table A).
Setting [2] is: compounds pre-incubated with the IL-17A for 24 h at room temperature.

As for `Cc1cnn(C)c1-c1ncc(NC(=O)[C@@H](NC(=O)c2ccnn2C)[C@H]2CC[C@H](C)CC2)cn1` [Example 156, N—((S)-2-((2-(1,4-dimethyl-1H-pyrazol-5-yl)pyrimidin-5-yl)amino)-1-((1r,4S)-4-methylcyclohexyl)-2-oxoethyl)-1-methyl-1H-pyrazole-5-carboxamide], under setting [1], the IC50 is 0.398 µM.

As for `COc1cnccc1-c1ccc(NC(=O)[C@@H](NC(=O)c2ccnn2C)C(c2ccccc2)c2ccccc2)cc1C` [Example 20, (S)—N-(1-((4-(3-methoxypyridin-4-yl)-3-methylphenyl)amino)-1-oxo-3,3-diphenylpropan-2-yl)-1-methyl-1H-pyrazole-5-carboxamide], the IC50 under setting [2] was 0.0316 µM. Same read-out and setting: to `COc1cnccc1-c1ccc(NC(=O)C(NC(=O)c2ccnn2C)C2c3ccccc3-c3ccccc32)cc1` (stereo not drawn) [Example 82, N-(1-(9H-fluoren-9-yl)-2-((4-(3-methoxypyridin-4-yl)phenyl)amino)-2-oxoethyl)-1-methyl-1H-pyrazole-5-carboxamide] belongs 0.0251 µM; to `Cc1nccc(-c2ccc(NC(=O)[C@@H](NC(=O)c3ccnn3C)C(c3ccccc3)c3ccccc3)cc2)c1C` [Example 1, (S)—N-(1-((4-(2,3-dimethylpyridin-4-yl)phenyl)amino)-1-oxo-3,3-diphenylpropan-2-yl)-1-methyl-1H-pyrazole-5-carboxamide], 0.0501 µM. On to `Cc1nsc(C)c1-c1ccc(NC(=O)[C@@H](NC(=O)c2ccnn2C)[C@H]2CC[C@H](C)CC2)nc1` [Example 196, N—((S)-2-((5-(3,5-dimethylisothiazol-4-yl)pyridin-2-yl)amino)-1-((1r,4S)-4-methylcyclohexyl)-2-oxoethyl)-1-methyl-1H-pyrazole-5-carboxamide], for which the IC50 under setting [1] was 0.251 µM. On to `CCn1nnc(C)c1-c1ccc(NC(=O)[C@@H](NC(=O)c2ccnn2C)C2CCCCCC2)nc1` [Example 157, (S)—N-(1-cycloheptyl-2-((5-(1-ethyl-4-methyl-1H-1,2,3-triazol-5-yl)pyridin-2-yl)amino)-2-oxoethyl)-1-methyl-1H-pyrazole-5-carboxamide], for which, under setting [1], the IC50 was 0.251 µM. Turning to `Cn1nccc1C(=O)N[C@H](C(=O)Nc1ccc(-c2ccncc2CO)cc1)C(c1ccccc1)c1ccccc1` [Example 42, (S)—N-(1-((4-(3-(hydroxymethyl)pyridin-4-yl)phenyl)amino)-1-oxo-3,3-diphenylpropan-2-yl)-1-methyl-1H-pyrazole-5-carboxamide], the IC50 under setting [2] was 0.0501 µM. `Cn1nccc1C(=O)N[C@H](C(=O)Nc1ccc(-c2ccncc2C#N)cc1)C(c1ccccc1)c1ccccc1` [Example 43, (S)—N-(1-((4-(3-cyanopyridin-4-yl)phenyl)amino)-1-oxo-3,3-diphenylpropan-2-yl)-1-methyl-1H-pyrazole-5-carboxamide]: the IC50 under setting [2] was 0.126 µM. For the compound `Cc1n[nH]c(C)c1-c1ccc(NC(=O)[C@@H](NC(=O)c2ccnn2C)C2CCCCC2)cn1` [Example 207, (S)—N-(1-cyclohexyl-2-((6-(3,5-dimethyl-1H-pyrazol-4-yl)pyridin-3-yl)amino)-2-oxoethyl)-1-methyl-1H-pyrazole-5-carboxamide], the IC50 under setting [1] was 0.501 µM.

`COc1cnccc1-c1ccc(NC(=O)[C@@H](NC(=O)c2ccnn2C)C(c2ccccc2)c2ccccc2)c(F)c1` [Example 23, (S)—N-(1-((2-fluoro-4-(3-methoxypyridin-4-yl)phenyl)amino)-1-oxo-3,3-diphenylpropan-2-yl)-1-methyl-1H-pyrazole-5-carboxamide]: the IC50 under setting [2] is 0.0398 µM. Turning to `CCn1nccc1C(=O)N[C@H](C(=O)Nc1ccc(-c2cn[nH]c(=O)c2)c(F)c1)C(c1ccccc1)c1ccccc1` [Example 67, (S)-1-ethyl-N-(1-((3-fluoro-4-(6-oxo-1,6-dihydropyridazin-4-yl)phenyl)amino)-1-oxo-3,3-diphenylpropan-2-yl)-1H-pyrazole-5-carboxamide], the IC50 under setting [2] is 0.398 µM. With `Cc1nccc(-c2ccc(NC(=O)[C@@H](NC(=O)c3ccnn3C)[C@H]3CC[C@H](C)CC3)nc2)c1C` [Example 152, N—((S)-2-((2′,3′-dimethyl-[3,4′-bipyridin]-6-yl)amino)-1-((1r,4S)-4-methylcyclohexyl)-2-oxoethyl)-1-methyl-1H-pyrazole-5-carboxamide], the IC50 under setting [1] was 0.794 µM. On to `COc1cnccc1-c1ccc(NC(=O)[C@@H](NC(=O)c2ccnn2C)C(c2ccc(F)cc2)c2ccc(F)cc2)cc1` [Example 19, (S)—N-(1,1-bis(4-fluorophenyl)-3-((4-(3-methoxypyridin-4-yl)phenyl)amino)-3-oxopropan-2-yl)-1-methyl-1H-pyrazole-5-carboxamide], for which the IC50 under setting [2] was 0.0631 µM. On to `CCn1nccc1C(=O)N[C@H](C(=O)Nc1ccc(-c2c(Cl)cnn2C)cn1)C1CCCCCC1` [Example 176, (S)—N-(2-((5-(4-chloro-1-methyl-1H-pyrazol-5-yl)pyridin-2-yl)amino)-1-cycloheptyl-2-oxoethyl)-1-ethyl-1H-pyrazole-5-carboxamide], for which the IC50 under setting [1] is 0.0398 µM. Still for that read-out and setting: as for `Cc1nocc1C(=O)N[C@H](C(=O)Nc1ccc(-c2c(C)noc2C)nc1)C1CCCCCC1` [Example 170, (S)—N-(1-cycloheptyl-2-((6-(3,5-dimethylisoxazol-4-yl)pyridin-3-yl)amino)-2-oxoethyl)-3-methylisoxazole-4-carboxamide], the figure is 0.158 µM. `Cc1nonc1C(=O)N[C@H](C(=O)Nc1ccc(-c2c(C)noc2C)cn1)C1CCCCCC1` [Example 128, (S)—N-(1-Cycloheptyl-2-((5-(3,5-dimethylisoxazol-4-yl)pyridin-2-yl)amino)-2-oxoethyl)-4-methyl-1,2,5-oxadiazole-3-carboxamide]: the IC50 under setting [1] was 0.251 µM. Consider `CCc1nocc1C(=O)N[C@H](C(=O)Nc1ccc(-c2c(C)cnn2C)cn1)C1CCC(F)(F)CC1` [Example 144, (S)—N-(1-(4,4-difluorocyclohexyl)-2-((5-(1,4-dimethyl-1H-pyrazol-5-yl)pyridin-2-yl)amino)-2-oxoethyl)-3-ethylisoxazole-4-carboxamide], for which the IC50 under setting [1] was 0.794 µM. `CCn1nccc1C(=O)N[C@H](C(=O)Nc1ccc(-c2c(C)n[nH]c2C)nc1)C1CCCCCC1` [Example 208, (S)—N-(1-cycloheptyl-2-((6-(3,5-dimethyl-1H-pyrazol-4-yl)pyridin-3-yl)amino)-2-oxoethyl)-1-ethyl-1H-pyrazole-5-carboxamide]: the IC50 under setting [1] is 0.0631 µM. Turning to `COc1c[n+]([O-])ccc1-c1ccc(NC(=O)[C@@H](NC(=O)c2ccnn2C)C(c2ccccc2)c2ccccc2)cc1` [Example 25, (S)-3-methoxy-4-(4-(2-(1-methyl-1H-pyrazole-5-carboxamido)-3,3-diphenylpropanamido)phenyl)pyridine 1-oxide], under setting [2], the IC50 was 0.00501 µM. As to `Cc1cnn(C)c1-c1ccc(NC(=O)[C@@H](NC(=O)c2ccnn2C)[C@H]2CC[C@H](C)CC2)nc1` [Example 106, N—((S)-2-((5-(1,4-Dimethyl-1H-pyrazol-5-yl)pyridin-2-yl)amino)-1-((1r,4S)-4-methylcyclohexyl)-2-oxoethyl)-1-methyl-1H-pyrazole-5-carboxamide], the IC50 under setting [1] was 0.1 µM. Still for that read-out and setting: to `Cc1cnn(C)c1-c1ccc(NC(=O)[C@@H](NC(=O)c2ccnn2C)[C@H]2CC[C@H](C)CC2)cn1` [Example 145, N—((S)-2-((6-(1,4-dimethyl-1H-pyrazol-5-yl)pyridin-3-yl)amino)-1-((1r,4S)-4-methylcyclohexyl)-2-oxoethyl)-1-methyl-1H-pyrazole-5-carboxamide] belongs 0.398 µM.
